Data: patent US20160151285A1, “METHOD TO PRODUCE SLOW RELEASE DELIVERY CARRIER LIPID NANOPARTICLES OF DIFFERENT LOG P VALUE” (University of Malaya, priority 2014, published 2016)

Columns and labels:
[1] = In vitro release study, Automated Franz Diffusion Cell System, Higuchi model fit; format: physicochemical; conditions: 37° C., PBS pH7.4, 24 hours, regenerated cellulose membrane
Experimental: Four different samples were run in 6 diffusate chamber volume of 4 ml […] PBS solution at pH7.4, with 0.6362 cm^2 effective diffusion area, under 400 rpm stirring and circulation of water bath at 37±1° C. throughout the experiments. Approximately 500 mg of each sample was loaded on the regenerated cellulose membrane surface (5000 Da molecular weight cut-off) in the retentate compartment, which was pre-soaked overnight, to be evaluated for 24 hours. At predetermined intervals, samples were withdrawn to be determined spectrophotometrically for the drug content and replaced with fresh receiving medium. The calculations are done based on average of six measurements from six different retentate compartments.

[2] = log P of the compound used / encapsulated; cited from earlier work

SMILES	Slope (release rate, Higuchi Model) ([1]; In NLC (NLC-1, NLC-2, NLC-3))	Slope (release rate, Higuchi Model) ([1]; In cream (C1, C2, C3))	Slope (release rate, Higuchi Model) ([1]; In solution (A1, A2, A3))	Log P [2]
CN(C)c1ccc2cc3ccc(N(C)C)cc3nc2c1 [Acridine orange, acridine orange]	0.43	4.12	19.15	–
O=S(=O)(O)c1cc2cc(S(=O)(=O)O)c(N=Nc3ccccc3[As](=O)(O)O)c(O)c2c(O)c1N=Nc1ccccc1[As](=O)(O)O [Arsenazo III, arsenazo III]	8.93	11.48	19.25	0.49
